From patent US5629430A, “Trifluoromethylpyrroloindolecarboxylic acid ester and process for production thereof” (Kyorin Pharmaceutical Co., Ltd., priority 1992, dated 1997)
≈ marks a conversion by molar mass, not a printed value.

How the values were obtained:
[1] = tested on: P388 mouse leukemia cells; assay: Activity against tumor cell growth (P388, MTT, 72 h); assay type: cell-based; details: P388 mouse leukemia cells, 72 h, 37° C., MTT; read-out: IC50 (50% growth inhibition concentration)
Method: Using a culture medium RPMI1640 supplemented with 10% inactivated bovine fetal serum, 2 mM glutamine, 100 μ/ml kanamycin sulfate, and 5 μM 2-hydroxyethyldisulfide (This culture medium is hereinafter referred to simply as "culture medium"), P388 mouse leukemia cells were diluted to a concentration of 1.5×10^5 cells/ml in the culture medium, and were placed in each well of 96-well multiplate in 60 μl portions. Separately, the test compound was dissolved in dimethylsulfoxide and was adequately diluted with the culture medium. The diluted solution containing test compound was added to the wells of the above plate respectively in 60 μl portions. Then the cells were incubated in a CO2 -incubator (5% CO2, 37° C.) for 72 hours.
The surviving cell numbers were measured according to the Mosmann's method (J. Immunol. Meth., 65 55-63, 1983) as follows. A 2.5 mg/ml solution of MTT (3-[4,5-dimethylthiazol-2-yl]-2,5-diphenyltetrazolium bromide) in Dulbecco's phosphate buffer solution (PBS) was prepared and added to each of the wells by 20 μl. The cells were further incubated for 3 hours. A 150 μl portion of 0.04N hydrochloric acid-isopropanol solution was added to each of the wells, and MTT-formazane formed was allowed to dissolve by pipetting. The absorbance of the solutions was measured at 540 nm taking the no-cell-containing [solution as the background. The 50% growth inhibition concentration (ICs50) was calculated from ratio of the absorbances of the treated samples to the absorbance of the no-medicine-treated sample, and from the concentration of the test compound.

Sarcoma-180 cells = assay: Antineoplastic activity, mice having Sarcoma-180 cells transplanted subcutaneously; assay type: in vivo, mouse (female, CDR strain); details: Mus musculus, Sarcoma-180, iv, 144 h, tumor weighed six days after dosage, read-out: T/C (average tumor weight, dosed vs. solvent-dosed control); for response vs control in vivo at 0.125 mg/kg: i.v. 0.125 mg/kg single dose; for response vs control in vivo at 0.25 mg/kg: i.v. 0.25 mg/kg single dose
Method: (§1) The test compound was dissolved in dimethylsulfoxide, and the solution was adequately diluted with 10% Emulfore EL620(produced by Rhone Poulenc Co.) to prepare the test compound solution. The antineoplastic activity was evaluated as below.
To the lateral region of a female mouse (CDR strain, 5 to 6 week age), 3.6×10^6 to 5×10^6 Sarcoma-180 cells were transplanted subcutaneously. Next day, the test medicine solution was injected into the tail vein in a single dose. Eight to twelve mice were employed for the solvent-dosed control group, and five mice were employed for the dosed group. Six days after the dosage, the tumor was cut out, and the weight thereof was measured. The antineoplastic effect was evaluated by the ratio (T/C) of the average tumor weight of the dosed group (T) to the average tumor weight of the solvent-dosed control group (C).

Colon-26 cells = assay: Antineoplastic activity, mice having Colon-26 cells transplanted subcutaneously; assay type: in vivo, mouse (female, CDF1 strain); details: Mus musculus, Colon 26, iv, 168 h, read-out: T/C (average tumor weight, dosed vs. solvent-dosed control); for response vs control in vivo at 0.5 mg/kg: i.v. 0.5 mg/kg single dose on sixth day
Method: as §1
To the lateral region of a female mouse (CDF1 strain, 8 to 12 week age), 1×10^6 Colon-26 cells were transplanted subcutaneously. On the sixth day after the transplantation, the test medicine solution-was injected into the tail vein in a single dose. Seven to twelve mice were employed for the solvent-dosed control group, and five mice were employed for the dosed group. One week after the dosage, the tumor was cut out, and the weight thereof was measured. The antineoplastic effect was evaluated by the ratio (T/C) of the average tumor weight of the dosed group (T) to the average tumor weight of the solvent-dosed control group (C).

[2] = tumor weighed one week after dosage

Compound | IC50 [1] [ng/mL] | response vs control in vivo at 0.5 mg/kg (Colon-26 cells; [2]) [%] | further results
COC(=O)c1c(C(F)(F)F)[nH]c2c1C13CC1CN(C(=O)c1cc4cc(NC(=O)c5cc6cc(OC)c(OC)c(OC)c6[nH]5)ccc4[nH]1)C3=CC2=O (centres unmarked) [Example 27, Methyl 6-trifluoromethyl-2-[5-[(5,6,7-trimethoxy-1H indol-2-ylcarbonyl)amino]-1H-indol-2-ylcarbonyl]-1,2,8,8a-tetrahydrocyclopropa[c]pyrrolo[3,2-e]indole-4 (5H)-one-7-carboxylate] | 0.17 (≈ 0.242 nM) | – | response vs control in vivo at 0.125 mg/kg (Sarcoma-180 cells): 19%
COC(=O)c1c(C(F)(F)F)[nH]c2c1C13CC1CN(C(=O)c1cc4cc(NC(=O)c5cc6c(OC)c(OC)c(OC)cc6[nH]5)ccc4[nH]1)C3=CC2=O (centres unmarked) [Example 28, Methyl 6-trifluoromethyl-2-[5-[(4,5,6-trimethoxy-1-H-indol-2-ylcarbonyl)amino]-1H-indol-2-ylcarbonyl]-1,2,8,8a-tetrahydrocyclopropa[c]pyrrolo[3,2-e]indole-4(5H)-one-7-carboxylate] | 0.11 (≈ 0.156 nM) | – | response vs control in vivo at 0.25 mg/kg (Sarcoma-180 cells): 28%
COC(=O)c1c(C(F)(F)F)[nH]c2c1C13CC1CN(C(=O)c1cc4cc(NC(=O)c5cc6ccccc6cn5)ccc4[nH]1)C3=CC2=O (centres unmarked) [Example 31, Methyl 3-[5-[(isoquinolin-3-ylcarbonyl)amino]-1H-indol-2-ylcarbonyl]-6-trifluoromethyl-1,2,8,8a-tetrahydrocyclopropa[c]pyrrolo[3,2-e]indol-4 (5H)-one-7-carboxylate] | 0.1 (≈ 0.16 nM) | – | response vs control in vivo at 0.125 mg/kg (Sarcoma-180 cells): 24%
COC(=O)c1c(C(F)(F)F)[nH]c2c1C13CC1CN(C(=O)c1cc4cc(NC(=O)c5cc6c(OC)c(OC)c(OC)cc6cn5)ccc4[nH]1)C3=CC2=O (centres unmarked) [Example 32, Methyl 6-trifluoromethyl-2-[5-[(5,6,7-trimethoxyisoquinolin-3-ylcarbonyl)amino]-1H-indol-2-ylcarbonyl]-1,2,8,8a-tetrahydrocyclopropa[c]pyrrolo[3,2e]indol-4 (5H)-one-7-carboxylate] | 0.09 (≈ 0.126 nM) | – | response vs control in vivo at 0.125 mg/kg (Sarcoma-180 cells): 23%
COC(=O)c1c(C(F)(F)F)[nH]c2c(O)cc3c(c12)C(CBr)CN3C(=O)c1cc2cc(NC(=O)c3cc4ccccc4o3)ccc2[nH]1 (centres unmarked) [Example 37, Methyl 3-[5-[(benzofuran-2-ylcarbonyl)amino]-1H-indol-2-ylcarbonyl]-1-bromomethyl-5-hydroxy-7-trifluoromethyl-1,2,3,6-tetrahydropyrrolo[3,2-e]indole-8-carboxylate] | 0.61 (≈ 0.877 nM) | – | response vs control in vivo at 0.25 mg/kg (Sarcoma-180 cells): 24%
COC(=O)c1c(C(F)(F)F)[nH]c2c(O)cc3c(c12)C(CBr)CN3C(=O)c1cc2cc(NC(=O)c3cc4ccccc4cn3)ccc2[nH]1 (centres unmarked) [Example 43, Methyl 1-bromomethyl-5-hydroxy-3-[5-[(isoquinolin-3-ylcarbonyl)amino]-1H-indol-2-ylcarbonyl]-7-trifluoromethyl-1,2,3,6-tetrahydropyrrolo[3,2-e]indole-8-carboxylate] | 0.1 (≈ 0.142 nM) | – | response vs control in vivo at 0.125 mg/kg (Sarcoma-180 cells): 25%
COC(=O)c1c(C(F)(F)F)[nH]c2c(O)cc3c(c12)C(CCl)CN3C(=O)c1cc2cc(NC(=O)c3cc4c(OC)c(OC)c(OC)cc4nn3)ccc2[nH]1 (centres unmarked) [Example 50, Methyl 1-chloromethyl-5-hydroxy-7-trifluoromethyl-3-[5-[(5,6,7-trimethoxycinnolin-3-ylcarbonyl)amino]-1H-indol-2-ylcarbonyl]-1,2,3,6-tetrahydropyrrolo[3,2-e]indole-8-carboxylate] | 4.5 (≈ 5.98 nM) | – | response vs control in vivo at 4 mg/kg (Sarcoma-180 cells; i.v. 4.0 mg/kg single dose): 15%
COC(=O)c1c(C(F)(F)F)[nH]c2c(O)cc3c(c12)[C@H](CCl)CN3C(=O)c1cc2cc(NC(=O)c3cc4cccc(OC)c4o3)ccc2[nH]1 [Example 63, Methyl (1S)-1-chloromethyl-5-hydroxy-3-[5-[(7-methoxybenzofuran-2-ylcarbonyl)amino]-1H-indol-2-ylcarbonyl]-7-trifluoromethyl-1,2,3,6-tetrahydropyrrolo[3,2-e]indole-8-carboxylate] | 0.55 (≈ 0.808 nM) | 4 | –
COC(=O)c1c(C(F)(F)F)[nH]c2c(O)cc3c(c12)[C@H](CCl)CN3C(=O)c1cc2cc(NC(=O)c3cc4c(OC)cccc4o3)ccc2[nH]1 [Example 75, Methyl (1S)-1-chloromethyl-5-hydroxy-3-[5-(4-methoxybenzofuran-2-ylcarbonyl)amino-1H-indol-2-ylcarbonyl]-7-trifluoromethyl-1,2,3,6-tetrahydropyrrolo[3,2-e]indole-8-carboxylate] | 0.74 (≈ 1.09 nM) | 17 | –
COC(=O)c1c(C(F)(F)F)[nH]c2c(O)cc3c(c12)[C@H](CCl)CN3C(=O)c1cc2cc(NC(=O)c3cc4cc(OC)ccc4o3)ccc2[nH]1 [Example 76, Methyl (1S)-1-chloromethyl-5-hydroxy-3-[5-(5-methoxybenzofuran-2-ylcarbonyl)amino-1H-indol-2-ylcarbonyl]-7-trifluoromethyl-1,2,3,6-tetrahydropyrrolo[3,2-e]indole-8-carboxylate] | 0.2 (≈ 0.294 nM) | 6 | –
COC(=O)c1c(C(F)(F)F)[nH]c2c(O)cc3c(c12)[C@H](CCl)CN3C(=O)c1cc2cc(NC(=O)c3cc4ccc(OC)cc4o3)ccc2[nH]1 [Example 77, Methyl (1S)-1-chloromethyl-5-hydroxy-3-[5-(6-methoxybenzofuran-2-ylcarbonyl)amino-1H-indol-2-ylcarbonyl]-7-trifluoromethyl-1,2,3,6-tetrahydropyrrolo[3,2-e]indole-8-carboxylate] | 0.23 (≈ 0.338 nM) | 6 | –
COC(=O)c1c(C(F)(F)F)[nH]c2c(O)cc3c(c12)[C@H](CCl)CN3C(=O)c1cc2cc(NC(=O)c3cc4cc(OC)c(OC)c(OC)c4o3)ccc2[nH]1 [Example 78, Methyl (1S)-1-chloromethyl-5-hydroxy.-7trifluoromethyl-3-[5-(5,6,7-trimethoxybenzofuran-2-ylcarbonyl)amino-1H-indol-2-ylcarbonyl]-1,2,3,6-tetrahydropyrrolo[3,2-e]indole-8-carboxylate] | 0.33 (≈ 0.445 nM) | – | response vs control in vivo at 0.125 mg/kg (Colon-26 cells; i.v. 0.125 mg/kg single dose on sixth day, tumor weighed one week after dosage): 26%
CCN(CC)c1ccc2cc(C(=O)Nc3ccc4[nH]c(C(=O)N5C[C@@H](CCl)c6c5cc(O)c5[nH]c(C(F)(F)F)c(C(=O)OC)c65)cc4c3)oc2c1 [Example 79, Methyl (1S)-1-chloromethyl-3-[5-(6-diethylaminobenzofuran-2-ylcarbonyl)amino-1H-indol-2-ylcarbonyl]-5-hydroxy-7-trifluoromethyl-1,2,3,6tetrahydropyrrolo[3,2-e]indole-8-carboxylate] | 2.1 (≈ 2.91 nM) | 9 | –
COC(=O)c1c(C(F)(F)F)[nH]c2c1[C@@]13C[C@@H]1CN(C(=O)c1cc4cccc(OC)c4o1)C3=CC2=O [Example 86, Methyl (7bR, 8aS)-2-(7-methoxybenzofuran-2-ylcarbonyl)-6-trifluoromethyl-1,2,8,8a-tetrahydrocyclopropa[c]pyrrolo[3,2-e]indol-4 (5H)-one-7-carboxylate] | 1.1 (≈ 2.26 nM) | 40 | –
COC(=O)c1c(C(F)(F)F)[nH]c2c(OC(=O)N3CCN(C)CC3)cc3c(c12)[C@H](CCl)CN3C(=O)c1cc2cc(NC(=O)c3cc4cccc(OC)c4o3)ccc2[nH]1 [Example 99, Methyl (1S)-1-chloromethyl-3-[5[(7-methoxybenzofuran-2-ylcarbonyl)amino]-1H-indol-2-ylcarbonyl]-5-(4-methylpiperazin-1-ylcarbonyl)oxy-7-trifluoromethyl-1,2,3,6-tetrahydropyrrolo[3,2-e]indole-8-carboxylate] | – | – | response vs control in vivo at 2 mg/kg (Colon-26 cells): 5%
